According to PubChem BioAssay AID1963868 (Molecular Pharmacology Branch, DTP, NCI, 2024):

Test system: KRAS PDC tumor spheroids (HUVEC+MSC), viability
Experiment: Anticancer human tumor 254851-301-R-J1-PDC patient-derived colon carcinoma cell line growth inhibition [KRAS2]
Conditions: for IC50: curve of first compound; for viability, T/C: stronger effect = lower value
How it was run: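 KRAS-mutant tumor cells were grown as spheroids with HUVEC endothelial cells and human MSCs as stroma. Targeted agents were tested alone and with KRAS pathway inhibitors. Doses started at or near clinical Cmax, or 10 microM, descending half-log.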

[1] = second compound 0.1 µM, first compound 0.0316 µM
[2] = second compound 0.1 µM, first compound 0.1 µM
[3] = second compound 0.316 µM, first compound 0.0316 µM
[4] = second compound 0.316 µM, first compound 0.1 µM
[5] = second compound 1 µM, first compound 0.0316 µM
[6] = second compound 1 µM, first compound 0.1 µM
[7] = second compound 3.16 µM, first compound 0.0316 µM
[8] = second compound 3.16 µM, first compound 0.1 µM
[9] = second compound 0.0316 µM, first compound 0.0316 µM
[10] = second compound 0.0316 µM, first compound 0.1 µM
[11] = second compound 0.0316 µM, first compound 0.316 µM
[12] = second compound 0.0316 µM, first compound 1 µM
[13] = second compound 0.0316 µM, first compound 3.16 µM
[14] = second compound 0.0316 µM, first compound 10 µM
[15] = second compound 0.1 µM, first compound 0.316 µM
[16] = second compound 0.1 µM, first compound 1 µM
[17] = second compound 0.1 µM, first compound 3.16 µM
[18] = second compound 0.1 µM, first compound 10 µM
[19] = second compound 0.316 µM, first compound 0.316 µM
[20] = second compound 0.316 µM, first compound 1 µM
[21] = second compound 0.316 µM, first compound 3.16 µM
[22] = second compound 0.316 µM, first compound 10 µM
[23] = second compound 1 µM, first compound 0.316 µM
[24] = second compound 1 µM, first compound 1 µM
[25] = second compound 1 µM, first compound 3.16 µM
[26] = second compound 1 µM, first compound 10 µM
[27] = second compound 3.16 µM, first compound 0.316 µM
[28] = second compound 3.16 µM, first compound 1 µM
[29] = second compound 3.16 µM, first compound 3.16 µM
[30] = second compound 3.16 µM, first compound 10 µM
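Note: spheroids exposed to compounds for seven days before readout.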
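Throughout, for viability, T/C: 100% = DMSO vehicle control luminescence of the spheroids.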

CC(C)n1nc(-c2ccc3oc(N)nc3c2)c2c(N)ncnc21 + C=CC(=O)N1CCN(c2nc(=O)n(-c3c(C)ccnc3C(C)C)c3nc(-c4c(O)cccc4F)c(F)cc23)C(C)C1
IC50 (second compound 0.1 µM): 19.1 nM | IC50 (second compound 0.316 µM): 21.6 nM | IC50 (second compound 1 µM): 13.3 nM | IC50 (second compound 3.16 µM): 20.1 nM | IC50 (second compound 10 µM): 18.1 nM | viability, T/C (second compound 0.1 µM, first compound 0.000316 µM): 107% | viability, T/C (second compound 0.1 µM, first compound 0.001 µM): 110% | viability, T/C (second compound 0.1 µM, first compound 0.00316 µM): 92.8% | viability, T/C (second compound 0.1 µM, first compound 0.01 µM): 72.8% | viability, T/C [1]: 32.3% | viability, T/C [2]: 19.8% | viability, T/C (second compound 0.316 µM, first compound 0.000316 µM): 105% | viability, T/C (second compound 0.316 µM, first compound 0.001 µM): 104% | viability, T/C (second compound 0.316 µM, first compound 0.00316 µM): 97.7% | viability, T/C (second compound 0.316 µM, first compound 0.01 µM): 71.2% | viability, T/C [3]: 39.8% | viability, T/C [4]: 23.1% | viability, T/C (second compound 1 µM, first compound 0.000316 µM): 116% | viability, T/C (second compound 1 µM, first compound 0.001 µM): 113% | viability, T/C (second compound 1 µM, first compound 0.00316 µM): 102% | viability, T/C (second compound 1 µM, first compound 0.01 µM): 54.7% | viability, T/C [5]: 34.3% | viability, T/C [6]: 21.9% | viability, T/C (second compound 3.16 µM, first compound 0.000316 µM): 103% | viability, T/C (second compound 3.16 µM, first compound 0.001 µM): 117% | viability, T/C (second compound 3.16 µM, first compound 0.00316 µM): 89.7% | viability, T/C (second compound 3.16 µM, first compound 0.01 µM): 73.5% | viability, T/C [7]: 34.7% | viability, T/C [8]: 22.8% | viability, T/C (second compound 10 µM, first compound 0.000316 µM): 98.9% | viability, T/C (second compound 10 µM, first compound 0.001 µM): 109% | viability, T/C (second compound 10 µM, first compound 0.00316 µM): 88.5% | viability, T/C (second compound 10 µM, first compound 0.01 µM): 66.4% | viability, T/C (second compound 10 µM, first compound 0.0316 µM): 35.1% | viability, T/C (second compound 10 µM, first compound 0.1 µM): 24%

CC(C)NCC(C(=O)N1CCN(c2ncnc3c2C(C)CC3O)CC1)c1ccc(Cl)cc1 (stereo not drawn) + C=CC(=O)N1CCN(c2nc(OCC3CCCN3C)nc3c2CCN(c2cccc4cccc(C)c24)C3)CC1CC#N
IC50 (second compound 0.0316 µM): > 10000 nM | IC50 (second compound 0.1 µM): > 10000 nM | IC50 (second compound 0.316 µM): > 10000 nM | IC50 (second compound 1 µM): > 10000 nM | IC50 (second compound 3.16 µM): 85.7 nM | viability, T/C [9]: 96.9% | viability, T/C [10]: 96.1% | viability, T/C [11]: 87.4% | viability, T/C [12]: 98.2% | viability, T/C [13]: 95.8% | viability, T/C [14]: 94.7% | viability, T/C [1]: 107% | viability, T/C [2]: 101% | viability, T/C [15]: 99.9% | viability, T/C [16]: 77.1% | viability, T/C [17]: 89.9% | viability, T/C [18]: 92.1% | viability, T/C [3]: 97.7% | viability, T/C [4]: 93.9% | viability, T/C [19]: 92% | viability, T/C [20]: 95.9% | viability, T/C [21]: 88.8% | viability, T/C [22]: 87.6% | viability, T/C [5]: 95.4% | viability, T/C [6]: 98.5% | viability, T/C [23]: 91.6% | viability, T/C [24]: 86.3% | viability, T/C [25]: 97.9% | viability, T/C [26]: 86.2% | viability, T/C [7]: 62% | viability, T/C [8]: 48.2% | viability, T/C [27]: 37% | viability, T/C [28]: 18.1% | viability, T/C [29]: 22.6% | viability, T/C [30]: 8.5%

COc1cc(OC)cc(N(CCNC(C)C)c2ccc3ncc(-c4cnn(C)c4)nc3c2)c1
viability, T/C (compound 0.0316 µM): 107% [middle of 5 runs] | viability, T/C (compound 0.1 µM): 100% [middle of 5 runs] | viability, T/C (compound 0.316 µM): 96.7% [middle of 5 runs]

CC1(C)CCC(CN2CCN(c3ccc(C(=O)NS(=O)(=O)c4ccc(NCC5CCOCC5)c([N+](=O)[O-])c4)c(Oc4cnc5[nH]ccc5c4)c3)CC2)=C(c2ccc(Cl)cc2)C1 + C=CC(=O)N1CCN(c2nc(OCC3CCCN3C)nc3c2CCN(c2cccc4cccc(C)c24)C3)CC1CC#N
IC50 (second compound 0.0316 µM): > 10000 nM | IC50 (second compound 0.1 µM): > 10000 nM | IC50 (second compound 0.316 µM): > 10000 nM | IC50 (second compound 1 µM): 6390 nM | IC50 (second compound 3.16 µM): 371 nM | viability, T/C [9]: 95.8% | viability, T/C [10]: 101% | viability, T/C [11]: 97.3% | viability, T/C [12]: 98% | viability, T/C [13]: 95.6% | viability, T/C [14]: 90% | viability, T/C [1]: 98.5% | viability, T/C [2]: 106% | viability, T/C [15]: 92.4% | viability, T/C [16]: 100% | viability, T/C [17]: 90.3% | viability, T/C [18]: 86.1% | viability, T/C [3]: 106% | viability, T/C [4]: 107% | viability, T/C [19]: 80.9% | viability, T/C [20]: 85.3% | viability, T/C [21]: 81% | viability, T/C [22]: 73.8% | viability, T/C [5]: 88% | viability, T/C [6]: 106% | viability, T/C [23]: 101% | viability, T/C [24]: 81.4% | viability, T/C [25]: 70.7% | viability, T/C [26]: 37.8% | viability, T/C [7]: 57% | viability, T/C [8]: 56.2% | viability, T/C [27]: 45% | viability, T/C [28]: 36.4% | viability, T/C [29]: 0.19% | viability, T/C [30]: 0.19%
